Reference: US12648936B2 (NOVARTIS AG, priority 2019, dated 2026)
pIC50, pKd: −log10 of the molar value.

Key:
[1] = tested on: pS6 (Ser240/244) in MEF TSC1−/− cells (mTORC1 signaling); experiment: Cell-based assay for rapalog potency (pS6 in MEF TSC1-/- cells); set-up: species or system Mouse; details: 2 hours treatment, average from multiple assays
[2] = molecular target: T1, FKBP12 (Homo sapiens, UniProt P62942); experiment: SPR assay, binding affinity to FKBP12; details: single-cycle kinetics, immobilized avi-his6 FKBP12
T1 construct: made in house; host or cells: E. coli
Procedure: (§1) SPR assay to determine binding affinity to FK506-binding proteins (FKBP). […] Each protein was subsequently immobilized on a streptavidin chip in a Biacore 8K SPR instrument (GE Healthcare). Using single-cycle kinetics, compound titrations were flowed at 45 uL/min over each surface using 2-minute association and 30-minute dissociation phases in a buffer containing 50 mM Tris pH 7.5/150 mM NaCl/0.01% Tween 20/1 mM DTT/2% DMSO. The data were fit using low molecular weight (LMW) single-cycle kinetics. The equilibrium dissociation constants (KD) are reported. The equilibrium dissociation constants (KD) to FKBP12, FKBP51, and FKBP52 are listed in Table 2 for the compound of the disclosure.

[3] = molecular target: FKBP12.6 (Homo sapiens, UniProt P68106); experiment: SPR assay, binding affinity to FKBP12.6; details: single-cycle kinetics
Procedure: as §1

[4] = molecular target: T2, FKBP25 (Homo sapiens, UniProt Q00688); experiment: SPR assay, binding affinity to FKBP25; details: single-cycle kinetics
T2 sequence (Q00688 1-224): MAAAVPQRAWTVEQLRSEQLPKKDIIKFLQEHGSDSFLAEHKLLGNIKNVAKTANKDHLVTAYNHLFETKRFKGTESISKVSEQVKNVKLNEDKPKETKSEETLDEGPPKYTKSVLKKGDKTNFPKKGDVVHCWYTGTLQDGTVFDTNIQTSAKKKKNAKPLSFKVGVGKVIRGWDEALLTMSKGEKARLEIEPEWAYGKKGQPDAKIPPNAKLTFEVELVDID
Procedure: as §1

[5] = molecular target: T3, FKBP51 (Homo sapiens, UniProt Q13451); experiment: SPR assay, binding affinity to FKBP51; details: single-cycle kinetics, immobilized avi-his6 FKBP51
T3 construct: made in house; host or cells: E. coli
T3 sequence (Q13451 1-457): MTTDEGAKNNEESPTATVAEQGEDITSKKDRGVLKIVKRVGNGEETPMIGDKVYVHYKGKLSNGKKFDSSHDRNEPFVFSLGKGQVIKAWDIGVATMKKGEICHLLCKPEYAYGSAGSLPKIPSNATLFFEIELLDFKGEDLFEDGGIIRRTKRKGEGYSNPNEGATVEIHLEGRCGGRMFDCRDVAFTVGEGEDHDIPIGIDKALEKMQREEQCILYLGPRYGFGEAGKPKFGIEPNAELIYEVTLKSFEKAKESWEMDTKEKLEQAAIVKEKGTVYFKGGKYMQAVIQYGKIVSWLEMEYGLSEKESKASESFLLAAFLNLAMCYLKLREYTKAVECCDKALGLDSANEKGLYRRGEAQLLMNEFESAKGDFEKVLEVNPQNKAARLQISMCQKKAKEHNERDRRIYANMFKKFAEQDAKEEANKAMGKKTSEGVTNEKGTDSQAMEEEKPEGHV
Procedure: as §1

[6] = molecular target: T4, FKBP52 (Homo sapiens, UniProt Q02790); experiment: SPR assay, binding affinity to FKBP52; details: single-cycle kinetics, immobilized avi-his6 FKBP52
T4 construct: made in house; host or cells: E. coli
T4 sequence (Q02790 1-459): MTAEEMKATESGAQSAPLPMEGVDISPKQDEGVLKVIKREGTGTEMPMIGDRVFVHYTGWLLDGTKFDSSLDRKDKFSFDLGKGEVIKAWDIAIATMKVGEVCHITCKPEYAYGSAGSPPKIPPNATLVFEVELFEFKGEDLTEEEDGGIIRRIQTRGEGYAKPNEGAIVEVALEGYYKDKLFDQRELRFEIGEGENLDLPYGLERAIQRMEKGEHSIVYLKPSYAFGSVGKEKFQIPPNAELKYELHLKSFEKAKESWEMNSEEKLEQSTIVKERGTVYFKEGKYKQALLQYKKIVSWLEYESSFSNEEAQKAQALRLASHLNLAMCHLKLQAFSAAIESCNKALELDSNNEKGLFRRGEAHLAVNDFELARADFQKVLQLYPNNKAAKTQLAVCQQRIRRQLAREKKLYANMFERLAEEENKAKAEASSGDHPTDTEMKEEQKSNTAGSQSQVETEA
Procedure: as §1

[7] = tested on: S6K1(Thr389) phosphorylation (mTORC1 activity) in FKBP12 knock-out 293T cells; experiment: pS6K1(Thr389) sandwich ELISA in FKBP12 knock-out 293T cells; assay type: cell-based; details: 2 hours, dose range 1000 nM to 0.0033 nM, relative to DMSO media (FIG. 1B)
Procedure: Cells were treated in triplicate. The Y axis represents percent inhibition of pS6K1(Thr389) relative to the level in cells treated with rapalog free media (media plus DMSO).
Generation of FKPB12 knock-out 293T cells.
WT and FKBP12 knock-out 293T cells were plated at a density of 30,000 cells per well in poly-D-Lysine coated 96-well plates (Corning, #354461) in Dulbecco's modified Eagle's medium (ThermoFisher, #11995-065) supplemented with 10% fetal bovine serum (ThermoFisher, #16140-071). Cells were incubated at 37° C., 5% CO2 for 48 hours until they reached ˜80% confluence. […] Media supplemented with blank Dimethyl sulfoxide (DMSO) was used as a control for both compounds. Phosphorylated amounts of S6K1 (Thr389) were detected by a sandwich ELISA kit (Cell signaling, #7063C) following the manufacture's protocol.
S6K1 is a downstream target of mTORC1 and phosphorylation of its rapalog-sensitive Thr389 site is used as a functional readout of mTORC1 activity (Lee, C. H., Inoki, K. and Guan, K. L. (2007). mTOR pathway as a target in tissue hypertrophy. Annu. Rev. Pharmacol. Toxicol. 47, 443-467).

T1 sequence (P62942 whole entry): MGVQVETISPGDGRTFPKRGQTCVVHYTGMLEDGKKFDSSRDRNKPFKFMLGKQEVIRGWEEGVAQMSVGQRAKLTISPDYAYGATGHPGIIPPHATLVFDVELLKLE
Sequence of FKBP12.6 (P68106 whole entry, species assumed): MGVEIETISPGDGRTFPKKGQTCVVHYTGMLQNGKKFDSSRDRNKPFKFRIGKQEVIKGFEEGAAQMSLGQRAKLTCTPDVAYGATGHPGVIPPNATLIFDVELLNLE

SMILES | pIC50 [1] | pIC50 ([1]; Mus musculus, 2 h) | pKd [2] | pKd [3] | pKd [4] | pKd [5] | pKd [6] | inhibition of S6K1(Thr389) phosphorylation [7]
CO[C@@H]1C[C@H](C[C@@H](C)[C@@H]2CC(=O)[C@H](C)/C=C(\C)[C@@H](O)[C@@H](OC)C(=O)[C@H](C)C[C@H](C)/C=C/C=C/C=C(\C)C(N3CCCS3(=O)=O)C[C@@H]3CC[C@@H](C)[C@@](O)(O3)C(=O)C(=O)N3CCCC[C@H]3C(=O)O2)CC[C@H]1OCCO (single isomer, unassigned) [Compound 2] | 7.65 | – | – | – | – | – | – | –
CO[C@@H]1C[C@H](C[C@@H](C)[C@@H]2CC(=O)[C@H](C)/C=C(\C)[C@@H](O)[C@@H](OC)C(=O)[C@H](C)C[C@H](C)/C=C/C=C/C=C(\C)C(N3CCCS3(=O)=O)C[C@@H]3CC[C@@H](C)[C@@](O)(O3)C(=O)C(=O)N3CCCC[C@H]3C(=O)O2)CC[C@H]1OCCO (single isomer, unassigned) [Compound 3] | 8.08 | – | – | – | – | – | – | –
CO[C@H]1C[C@@H]2CC[C@@H](C)[C@@](O)(O2)C(=O)C(=O)N2CCCC[C@H]2C(=O)O[C@H]([C@H](C)C[C@@H]2CC[C@@H](OCCO)[C@H](OC)C2)CC(=O)[C@H](C)/C=C(\C)[C@@H](O)[C@@H](OC)C(=O)[C@H](C)C[C@H](C)/C=C/C=C/C=C/1C [RAD001, everolimus, reference compound] | – | 10.30 | 6.54 | 7.92 | 7.60 | 6.40 | 6.17 | ~50%
CO[C@H]1C[C@@H]2CC[C@@H](C)[C@@](O)(O2)C(=O)C(=O)N2CCCC[C@H]2C(=O)O[C@H]([C@H](C)C[C@@H]2CC[C@@H](O)[C@H](OC)C2)CC(=O)[C@H](C)/C=C(\C)[C@@H](O)[C@@H](OC)C(=O)[C@H](C)C[C@H](C)/C=C/C=C/C=C/1C [Rapamycin, reference compound] | – | 10.30 | – | – | – | – | – | –

Continued, in another order:

pIC50 [1] | pIC50 ([1]; Mus musculus, 2 h) | pKd [2] | pKd [3] | pKd [4] | pKd [5] | pKd [6] | SMILES | inhibition of S6K1(Thr389) phosphorylation [7]
– | 8.87 | 8.19 | 7.25 | 4.54 | 5.69 | 5.45 | CO[C@@H]1C[C@H](C[C@@H](C)[C@@H]2CC(=O)[C@H](C)/C=C(\C)[C@@H](O)[C@@H](OC)C(=O)[C@H](C)C[C@H](C)/C=C/C=C/C=C(\C)C(N3CCCS3(=O)=O)C[C@@H]3CC[C@@H](C)[C@@](O)(O3)C(=O)C(=O)N3CCCC[C@H]3C(=O)O2)CC[C@H]1O (stereo partly drawn) [Compound 1] | no longer inhibited
– | 8.47 | 7.96 | – | – | 5.59 | 5.59 | CO[C@@H]1C[C@H](C[C@@H](C)[C@@H]2CC(=O)[C@H](C)/C=C(\C)[C@@H](O)[C@@H](OC)C(=O)[C@H](C)C[C@H](C)/C=C/C=C/C=C(\C)C(N3CCCCS3(=O)=O)C[C@@H]3CC[C@@H](C)[C@@](O)(O3)C(=O)C(=O)N3CCCC[C@H]3C(=O)O2)CC[C@H]1O (stereo partly drawn) [Compound 4] | –
